Patent publication US20050013862A1, “Functional powders for oral delivery” (Vectura Limited, priority 2001, published 2005)

Test: Twin Stage Impinger fine particle fraction
Type: physicochemical
Details: glass, 12.8 mm jet
Excerpt: A Twin Stage Impinger Apparatus (glass with a 12.8 mm jet) was used to determine the fine particle fraction of the formulations of Examples 10, 11 (steps 1 & 2), 11 (step 1 only), 14, and 15, with the following results: […]

Average % Fine Particle Fraction at 601/min (n = 5): 3.89%
Compound: COc1ccc2c(c1)c(CC(=O)O)c(C)n2C(=O)c1ccc(Cl)cc1 [Raw indomethacin (pulverized), indomethacin]
